Measured values taken from PMC4585737, “Lipoproteins/peptides are sepsis-inducing toxins from bacteria that can be neutralized by synthetic anti-endotoxin peptides” (Scientific Reports, 2015).
“Also recorded” adds a separate entry of the source.

Tests used:
Balb/C mice = experiment: Serum cytokine response in mice after intraperitoneal inoculation; assay type: in vivo, mouse; conditions: 400 μg peptide i.p. immediately after 40 μg FSL-1, different site, n = 5
Protocol: Seven-week-old female SPF-free Balb/C mice of 20 g of body weight, approximately, were purchased from Harlan Spain (Harlan Interfauna Iberica S.A., Barcelona, Spain) and randomly distributed in experimental groups (at least 4 animals per group except for the determination of lethal dose (n = 3)). Sample size was calculated based on previous results with the same animal model. Animals were housed in individually ventilated cages (5 mice per cage) bedded with hardwood bedding. Mice were provided ad libitum access to feed and water and lighting was adjusted to a 14-hour light/10-hour dark cycle. During the experiments, the condition of the animals was monitored daily every 4 hours and animals displaying persistent motor ataxia and hunched posture were euthanized.
To study if FSL-1 had pro-inflammatory cytokine-inducing activity, animals were intraperitoneally inoculated with 40 μg of FSL-1 resuspended in 200 μl of pyrogen-free saline. Blood samples were taken both at 1.5 h or 4 h after FSL-1 challenge to measure TNFα and IL-6 levels. For this purpose, mice were anesthetised, a blood sample was obtained by the retroorbital plexus and serum cytokine levels were measured using Quantikine Immunoassays kits (R&D systems, Minneapolis, USA) following manufacturer’s instructions. Differences between groups were statistically analyzed using the Mann-Whitney U test.
To evaluate the ability of Aspidasept® to neutralize the FSL-1 induced pro-inflammatory cytokines, a group of animals received by the intraperitoneal route first 40 μg of FSL-1 and then 400 μg of the drug resuspended in 100 μl of pyrogen-free saline. This second injection was administered immediately after FSL-1 challenge at a different site of the peritoneum. TNFα and IL-6 levels were measured (see above) at 1.5 h or 4 h after challenge, respectively, coinciding with the peak of cytokine secretion, as determined in preliminary experiments.

FSL-1 aggregates = experiment: FRET intercalation of peptide into FSL-1 aggregates; assay type: binding
Text: The ability of selected peptides to intercalate into LP aggregates was investigated exemplarily for FSL-1 and for LP SitC by FRET as described earlier. Briefly, the LP samples were doubly labelled with the fluorescent phospholipid dyes N-(7-nitrobenz-2-oxa-1,3-diazol-4-yl)-phosphatidyl ethanolamine (NBD-PE) and N-(lissamine rhodamine B sulfonyl)-phosphatidylethanolamine (Rh-PE) (Molecular Probes, Life Technologies). Intercalation of unlabeled molecules into the doubly labeled liposomes leads to probe dilution and to a lower FRET efficiency: Therefore, the emission intensity of the donor ID increases and that of the acceptor IA decreases (for the sake of clarity, only the quotient of the donor and acceptor emission intensity will be shown here).
In all the experiments, the peptides (100 μl of a 100 μM Hepes solution) were added to doubly labelled LP (900 μl of a 10 μM solution) at 50 s after equilibration. NBD-PE was excited at 470 nm and the donor and acceptor fluorescence intensities were monitored at 531 and 593 nm, respectively, and the fluorescence signal ID/IA was recorded for further 250 s. The measurement was repeated twice.

Pam3CSK4 = experiment: Isothermal titration calorimetry of peptide into Pam3CSK4; assay type: binding
Protocol: Microcalorimetric measurements of peptide binding to selected LP, i.e., Pam3CSK4 and FSL-1 were performed on a MCS isothermal titration calorimeter (Microcal, Freiburg, Germany) at 37 °C, as previously described. The LP containing solutions (0.05 mM, prepared as described above) were dispensed into the microcalorimetric cell (volume 1.5 ml), and the peptide solutions (1 mM) were loaded into the syringe compartment (volume 0.1 ml). After temperature equilibration, the peptide was titrated in 3 μl aliquots every 5 min into the LP-containing cell under constant stirring and the heat of interaction after each injection measured by the MCS instrument was plotted versus time.

Sequence: GCKKYRRFRWKFKGKFWFWG [Aspidasept®, synthetic anti-LPS peptide (SALP), 20′mer, anti-septic therapeutic drug candidate]
- inhibition of FSL-1 induced TNFα stimulation in mice (Balb/C mice; 1.5 h, p < 0.01): totally inhibited
- reduction of FSL-1 induced IL-6 levels in mice (Balb/C mice; 4 h): slight reduction
- FRET: intercalation on increase in peptide concentration (FSL-1 aggregates; FSL-1:Pep19-2.5 1:1 M/M vs 1:0.1 M/M): did not lead to a further increase in intercalation
- FRET: incorporation into the LP aggregate (FSL-1 aggregates; [LP]:[Aspidasept] 1:0.1 molar, peptide added after 50 s, ID/IA signal): instantaneous incorporation
- ITC: Pam3CSK4:peptide interaction (Pam3CSK4; LP 0.05 mM, peptide 1 mM titrated in 3 μl portions every 5 min, 37 °C): weak exothermic reaction; also recorded: no clear thermal reaction
- affinity of the peptide towards the LP (Pam3CSK4; Pam3CSK4, concluded from ITC): poor affinity
